IC50 data for eight molecules are collected here from patent US4739050A, “2-phenyl-1,4-benzothiazin-3-one derivatives” (Santen Pharmaceutical Co., Ltd., priority 1985, dated 1988).

The structures appear in SMILES notation. Where a name gives a salt, the structure may show the parent alone.

This test has as its system guinea-pig teania coli. Description: Pharmacological test I: calcium-antagonistic activity, inhibition of Ca++-induced contraction of isolated guinea-pig teania coli. The following applies: Cavia porcellus, 5 min, Ca++-free-high-K Krebs, 5 min exposure before CaCl2 (3×10^-4 M), 32° C., read-out: Calcium-antagonistic activity IC50 (concentration eliciting 50% inhibition of Ca++-induced contraction). The protocol:
The action potentials on the smooth muscles of uterus, teania coli and portal vein are dependent on calcium ion, and therefore these smooth muscle preparations are useful for screening of calcium antagonists. We measured the calcium-antagonistic activity of the compounds by the method using guinea-pig teania coli preparation.
Isolated guinea-pig teania coli was suspended in a organ bath filled with Krebs solution at 32° C. and bubbled with 5% carbon dioxide in oxygen. After equilibration, the muscle was washed with Ca^++ -free Krebs solution, and when the muscle had relaxed to the basal level, it was suspended in Ca^++ -free-high-K Krebs solution.
The muscle was exposed to test compounds for 5 minutes before addition of CaCl2, and the contraction induced by CaCl2 (3×10^-4 M) was recorded isotonically. The calcium-antagonistic activity was represented by the concentration of test compound which elicited 50% inhibition of Ca^++ -induced contraction (IC50).

`COc1ccc(OC)c(C2(CCCN(C)C3CCCCC3)Sc3ccccc3N(C)C2=O)c1` (centres unmarked) [compound 80, 3,4-Dihydro-2-(2,5-dimethoxyphenyl)-4-methyl-2-[3-(N-methylcyclohexylamino)propyl]-3-oxo-2H-1,4-benzothiazine oxalate]: the IC50 amounted to 710 nM.

On to `COc1ccc(OC)c(C2(CCCN(C)CCc3cc(OC)c(OC)c(OC)c3)Sc3ccccc3N(C)C2=O)c1` (centres unmarked) [compound 83, 3,4-Dihydro-2-(2,5-dimethoxyphenyl)-4-methyl-2-[3-(N-methyl-3,4,5-trimethoxyphenethylamino)propyl[-3-oxo-2H-1,4-benzothiazine oxalate], for which the IC50 worked out at 860 nM.

For `COc1ccc(CCN(C)CCCCOc2ccc(C3(SC)Sc4ccccc4N(C)C3=O)cc2)cc1OC` (centres unmarked) [compound 103, 3,4-Dihydro-4-methyl-2-[4-[4-(N-methyl-3,4-dimethoxyphenethylamino)butoxy]phenyl]-2-methylthiol-3-oxo-2H-1,4l-benzothiazine hydrochloride], the IC50 is 530 nM.

As for `COc1ccc(OCCCN(C)CCc2ccc(OC)c(OC)c2)c(C2(SC)Sc3ccccc3N(C)C2=O)c1` (centres unmarked) [compound 131, 3,4-Dihydro-2-[5-methoxy-2-[3-(N-methyl-3,4-dimethoxyphenethylamino)propoxy]phenyl]-4-methyl-2-methylthio-3-oxo-2H-1,4-benzothiazine hydrochloride], the IC50 came to 630 nM.

Consider `COc1ccc(OCCCCN(C)CCc2cc(OC)c(OC)c(OC)c2)c(C2(SC)Sc3ccccc3N(C)C2=O)c1` (centres unmarked) [compound 142, 3,4-Dihydro-2-[5-methoxy-2-[4-(N-methyl-3,4,5-trimethoxyphenethylamino)butoxy]phenyl]-4-methyl-2-methylthio-3-oxo-2H-1,4-benzothiazine hydrochloride], for which the IC50 is 630 nM.

For `COc1ccc(OCCCN(C)CCOc2ccc3c(c2)OCO3)c(C2(OC)Sc3ccccc3N(C)C2=O)c1` (centres unmarked) [compound 147, 3,4-Dihydro-2-methoxy-2-[5-methoxy-2-[3-[N-methyl-2-(3,4-methylenedioxyphenoxy)ethylamino]propoxy]phenyl]-4-methyl-3-oxo-2H-1,4-benzothiazine hydrochloride], the IC50 amounted to 420 nM.

With `COc1ccc(OCCCCN(C)CCOc2ccc3c(c2)OCO3)c(C2(OC)Sc3ccccc3N(C)C2=O)c1` (centres unmarked) [compound 148, 3,4-Dihydro-2-methoxy-2-[5-methoxy-2-[4-[N-methyl-2-(3,4-methylenedioxyphenoxy)ethylamino]butoxy]phenyl]-4-methyl-3-oxo-2H-1,4-benzothiazine hydrochloride], the IC50 is 380 nM.

Consider `COc1ccc(OCCCCN(C)CCOc2ccc3c(c2)OCO3)c(C2(SC)Sc3ccccc3N(C)C2=O)c1` (centres unmarked) [compound 150, 3,4-Dihydro-2-[5-methoxy-2-[4-[N-methyl-2-(3,4-methylenedioxyphenoxy)ethylamino]butoxy]phenyl]-4-methyl-2-methylthio-3-oxo-2H-1,4-benzothiazine hydrochloride hemihydrate], for which the IC50 stood at 890 nM.
